Article PMC10218941, “Design, Synthesis, Antiproliferative Actions, and DFT Studies of New Bis–Pyrazoline Derivatives as Dual EGFR/BRAF^V600E Inhibitors” (International Journal of Molecular Sciences, 2023)
Where “and” joins values, the source holds several entries; their conditions need not be identical. Equal values may be shown once.

How the values were obtained:
caspase-3 = assay: Caspase 3 activation assay; assay type: cell-based, human; conditions: MCF-7 cells; for Caspase–3 Fold Change: versus untreated control
Source text: Compounds 12 and 17 were studied for their effects on caspase-3 levels in MCF-7 (breast cancer cell line) and staurosporine as a reference (503.00 ± 4 pg/mL). […] The aforementioned results imply that caspase-3 overexpression may be a contributing factor in the antiproliferative effects of the investigated compounds. […]
4.2.3. Caspase-3 activation assay
Allow all reagents to reach room temperature before use. Gently mix all liquid reagents prior to use. Determine the number of 8-well strips needed for the assay. Insert these in the frame(s) for current use. Add 100 μl of the Standard Diluent Buffer to the zero standard wells. Well(s) reserved for chromogen blank should be left empty. Add 100 μl of standards and controls or diluted samples to the appropriate microtiter wells. The sample dilution chosen should be optimized for each experimental system. Tap gently on side of plate to mix. Cover wells with plate cover and incubate for 2 hours at room temperature. Thoroughly aspirate or decant solution from wells and discard the liquid, Wash wells 4 times. Pipette 100 μl of Caspase-3 (Active) Detection Antibody solution into each well except the chromogen blank(s). Tap gently on the side of the plate to mix. Cover plate with plate cover and incubate for 1 hour at room temperature. Thoroughly aspirate or decant solution from wells and discard the liquid, Wash wells 4 times. Add 100 μl Anti-Rabbit IgG HRP Working Solution to each well except the chromogen blank(s). Prepare the working dilution as described in Preparing IgG HRP. Cover wells with the plate cover and incubate for 30 minutes at room temperature. Thoroughly aspirate or decant solution from wells and discard the liquid. Wash wells 4 times. Add 100 μl of Stabilized Chromogen to each well. The liquid in the wells will begin to turn blue. Incubate for 30 minutes at room temperature and in the dark. The incubation time for chromogen substrate is often determined by the microtiter plate reader used. Many plate readers have the capacity to record a maximum optical density (O.D.) of 2.0. The O.D. values should be monitored, and the substrate reaction stopped before the O.D. of the positive wells exceeds the limits of the instrument. The O.D. values at 450 nm can only be read after the Stop Solution has been added to each well. If using a reader that records only to 2.0 O.D., stopping the assay after […]
Add 100 μl of Stop Solution to each well. Tap side of plate gently to mix. The solution in the wells should change from blue to yellow. Read the absorbance of each well at 450 nm having blanked the plate reader against a chromogen blank composed of 100 μl each of Stabilized Chromogen and Stop Solution. Read the plate within 2 hours after adding the Stop Solution. Use a curve fitting software to generate the standard curve. A four-parameter algorithm provides the best standard curve fit. Read the concentrations for unknown samples and controls from the standard curve. Multiply value(s) obtained for sample(s) by the appropriate dilution factor to correct for the dilution in step 3. Samples producing signals greater than that of the highest standard should be diluted in Standard Diluent Buffer and reanalyzed. […]

caspase-8 = assay: Caspase-8 level assay; assay type: cell-based, human; conditions: MCF-7 cells; for Caspase-8 Fold Change: versus untreated control
Description: Additionally, the effects of compounds 12 and 17 on the levels of caspase-8, Bax, and Bacl-2 in the MCF-7 cancer cell line and staurosporine as a control were examined. […]
The solution in the wells should change from blue to yellow. Read the absorbance of each well at 450 nm having blanked the plate reader against a chromogen blank composed of 100 μl each of Stabilized Chromogen and Stop Solution. Read the plate within 2 hours after adding the Stop Solution. Use a curve fitting software to generate the standard curve. A four-parameter algorithm provides the best standard curve fit. Read the concentrations for unknown samples and controls from the standard curve. Multiply value(s) obtained for sample(s) by the appropriate dilution factor to correct for the dilution in step 3. Samples producing signals greater than that of the highest standard should be diluted in Standard Diluent Buffer and reanalyzed.
4.2.4. Caspase-8 activation assay
Cells were obtained from American Type Culture Collection, cells were grown in RPMI 1640 containing 10% fetal bovine serum at 37°C, stimulated with the compounds to be tested for caspase8, and lysed with Cell Extraction Buffer. This lysate was diluted in Standard Diluent Buffer over the range of the assay and measured for human active caspase-8 content. (Cells are Plated in a density of 1.2 – 1.8 × 10,000 cells/well in a volume of 100µl complete growth medium + 100 ul of the tested compound per well in a 96-well plate for 24 hours before the enzyme assay for Tubulin.). The absorbance of each microwell was read on a spectro-photometer at 450 nm. A standard curve is prepared from 7human Caspase-8 standard dilutions and human Caspase-8 concentration determined. […]

Row | Structure (SMILES) | Caspase–3 Conc (caspase-3) | Caspase–3 Fold Change (caspase-3) | Caspase-8 Conc (caspase-8) | Caspase-8 Fold Change (caspase-8)
1 | COc1ccc(C2CC(c3ccc(OCC(=O)Nc4ccc(C5=NNC(c6ccc(OC)c(OC)c6)C5)cc4)cc3)=NN2)cc1 (stereo not drawn) [Compound 12, 2-(4-(5-(4-Methoxyphenyl)-4,5-dihydro-1H-pyrazol-3-yl)phenoxy)-N-(4-(5-(3,4-dimethoxyphenyl)-4,5-dihydro-1H-pyrazol-3-yl)phenyl)acetamide] | 543.50 ± 4 pg/mL | 8.5 | 1.87 ng/mL | 21
2 | COc1ccc(C2CC(c3ccc(NC(=O)COc4ccc(C5=NNC(c6ccc(OC)c(OC)c6)C5)cc4)cc3)=NN2)cc1 (stereo not drawn) [Compound 17, 2-(4-(5-(3,4-Dimethoxyphenyl)-4,5-dihydro-1H-pyrazol-3-yl)phenoxy)-N-(4-(5-(4-methoxyphenyl)-4,5-dihydro-1H-pyrazol-3-yl)phenyl)acetamide] | 469.50 ± 5 pg/mL and 469.50 ± 4 pg/mL | 7.2 | 1.77 ng/mL | 20
3 | CN[C@@H]1C[C@H]2O[C@@](C)([C@@H]1OC)n1c3ccccc3c3c4c(c5c6ccccc6n2c5c31)C(=O)NC4 [Staurosporine, reference compound] | 503.00 ± 4 pg/mL | 8.0 | 1.80 ng/mL | 20
